The term EC50 denotes the concentration at which the effect is half-maximal. As usually defined, the IC50 is the concentration that inhibits the measured activity by half.

A value given as a limit tells only on which side of the number the result lay.

One test deals with T1, PD-1/PD-L1 interaction (Homo sapiens, UniProt Q9NZQ7).
T1 construct: expressed in transfected cells; host or cells: CHO cells (aAPC-PD-L1) co-cultured with Jurkat cells overexpressing PD-1 and an NFAT-luciferase reporter
The test is described as follows: PD-1/PD-L1 NFAT reporter co-culture assay. It counts as cell-based. The settings on record: Jurkat PD-1 NFAT-luciferase cells co-cultured with aAPC-PD-L1 CHO cells, 6 hrs at 37° C.; read-out: EC50 NFAT Luciferase. The method, boiled down:
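First, CHO cells displaying anti-CD3 antibody and PD-L1 were plated overnight. Next, compound-treated PD-1 Jurkat NFAT-luciferase reporter cells in 2% FBS RPMI were added for 6 h at 37 °C. Finally, ONE-Glo luminescence was read and EC50 values fitted with a four-parameter equation.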

For another test, the target named is PD-1/PD-L1 (Homo sapiens, UniProt Q9NZQ7). The test can be described thus: PD-1/PD-L1 biochemical protein-protein interaction assay (ALPHA). The test is classed as binding. The settings on record: 0.3 nM His tagged PD-L1, 2.5 nM biotinylated Fc-PD-1, 60 minutes at 25° C., read-out: IC50 PD-L1-PD-1 Alpha IC50-mono PD-L1-fcP-D1. The method, then:
Biological Activity PD-1/PD-L1 & CTLA/CD80 Biochemical Protein-Protein Interaction Assay
Compounds were tested in biochemical protein-protein interaction assays to determine if they can specifically block the interaction between the extracellular domains of PD-1/PD-L1 or CTLA/CD80. Binding of the protein pairs is measured using a bead based Amplified Luminescent Proximity Homogeneous Assay (ALPHA) platform. Binding of each protein pair results in proximity of the donor and acceptor beads which leads to an increase in ALPHA signal. Disruption of the protein-protein interaction with a test compound results in a decrease in ALPHA signal. Assays are performed in 25 mM Hepes (pH 7.4), 150 mM NaCl, 3.4 mM EDTA, 0.005% Tween 20, and 0.01% BSA. Final protein concentration in the assays were 0.3 nM (His tagged PD-L1), 2.5 nM (biotinylated Fc-PD-1), 1 nM (His tagged CTLA4) and 1 nM (biotinylated CD80). After an assay reaction time of 60 minutes at 25° C., binding was measured with addition of 20 μg/mL ALPHA assay acceptor beads (anti-His coated) and […] ALPHA assay donor beads (streptavidin coated). IC50 values were calculated from the fit of the dose-response curves to a four-parameter equation. Representative data are shown below in Table 1.

T1 sequence (Q9NZQ7 19-290): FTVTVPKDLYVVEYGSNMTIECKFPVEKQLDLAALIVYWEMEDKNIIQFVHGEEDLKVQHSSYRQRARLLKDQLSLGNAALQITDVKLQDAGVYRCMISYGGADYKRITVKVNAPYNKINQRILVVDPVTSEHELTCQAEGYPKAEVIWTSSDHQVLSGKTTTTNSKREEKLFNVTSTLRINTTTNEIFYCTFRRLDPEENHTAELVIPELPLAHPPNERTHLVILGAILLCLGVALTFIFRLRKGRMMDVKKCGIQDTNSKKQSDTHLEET
Chain of PD-1/PD-L1 (Q9NZQ7 19-238 limits assumed): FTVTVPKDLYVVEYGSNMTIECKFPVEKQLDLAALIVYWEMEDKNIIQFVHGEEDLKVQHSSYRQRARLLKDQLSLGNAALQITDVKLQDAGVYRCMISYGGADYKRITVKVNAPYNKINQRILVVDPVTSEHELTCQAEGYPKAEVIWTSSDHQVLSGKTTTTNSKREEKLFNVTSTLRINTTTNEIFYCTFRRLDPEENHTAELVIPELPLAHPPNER

Consider `Cc1c(COc2ccc(CNCCO)cc2Cl)cccc1-c1cccc(COc2cc(OCc3cncc(C#N)c3)c(CNCCO)cc2Cl)c1C` [Example 71, 5-((4-chloro-5-((3′-((2-chloro-4-(((2-hydroxyethyl)amino)methyl)phenoxy)methyl)-2,2′-dimethyl-[1,1′-biphenyl]-3-yl)methoxy)-2-(((2-hydroxyethyl)amino)methyl)phenoxy)methyl)nicotinonitrile], for which the EC50 on PD-1/PD-L1 interaction worked out at 1030 nM. Further, the concentration for half-maximal inhibition (IC50) on PD-1/PD-L1 amounted to 26.5 nM.
For the compound `Cc1c(COc2cc(OCc3cncc(C#N)c3)c(CNC[C@@H](O)CC(=O)O)cc2Cl)cccc1-c1cccc(-c2ccc(OCCNC[C@@H](O)CC(=O)O)c(F)c2)c1C` [Example 314], the EC50 on PD-1/PD-L1 interaction came to 188 nM. The IC50 at PD-1/PD-L1 is 0.064 nM.
The matching figures for `COc1nc(OCc2cccc(-c3cccc(COc4nc(OC)c(CNC[C@@H](O)CC(=O)O)cc4C)c3C)c2C)c(C)cc1CNC[C@@H](O)CC(=O)O` [Example 119, (3S,3′S)-4,4′-((((((2,2′-dimethyl-[1,1′-biphenyl]-3,3′-diyl)bis(methylene))bis(oxy))bis(2-methoxy-5-methylpyridine-6,3-diyl))bis(methylene))bis(azanediyl))bis(3-hydroxybutanoic acid)]: 863 nM and 0.8 nM.
On to `CCNCc1cc(Cl)c(OCc2cccc(-c3cccc(COc4cc(OCc5cncc(C#N)c5)c(CNCC)cc4Cl)c3C)c2C)cc1OCc1cncc(C#N)c1` [Example 12, 5,5′-((((((2,2′-dimethyl-[1,1′-biphenyl]-3,3′-diyl)bis(methylene))bis(oxy))bis(4-chloro-6-((ethylamino)methyl)-3,1-phenylene))bis(oxy))bis(methylene))dinicotinonitrile], for which the EC50 at PD-1/PD-L1 interaction was 653 nM. Besides, the IC50 at PD-1/PD-L1 turned out to be 11.1 nM.
Take `COc1nc(OCc2cccc(-c3cccc(COc4nc(OC)c(CNC[C@@H](O)CC(=O)O)cc4S(C)(=O)=O)c3C)c2C)c(S(C)(=O)=O)cc1CNC[C@@H](O)CC(=O)O` [Example 263, (3S,3′S)-4,4′-((((((2,2′-dimethyl-[1,1′-biphenyl]-3,3′-diyl)bis(methylene))bis(oxy))bis(2-methoxy-5-(methylsulfonyl)pyridine-6,3-diyl))bis(methylene))bis(azanediyl))bis(3-hydroxybutanoic acid)]: the EC50 on PD-1/PD-L1 interaction worked out at 36400 nM. Also, the IC50 on PD-1/PD-L1 was 1.8 nM.
Turning to `COc1nc(OCc2cccc(-c3cccc(COc4ccc(CNC[C@@H](C)O)c(OC)n4)c3C)c2C)ccc1CNC[C@@H](C)O` [Example 24, (2R,2′R)-1,1′-((((((2,2′-dimethyl-[1,1′-biphenyl]-3,3′-diyl)bis(methylene))bis(oxy))bis(2-methoxypyridine-6,3-diyl))bis(methylene))bis(azanediyl))bis(propan-2-ol)], the EC50 on PD-1/PD-L1 interaction worked out at 1890 nM. Besides, the half-maximal inhibitory concentration (IC50) on PD-1/PD-L1 was 41.7 nM.
Regarding `CCOC(=O)CNCc1cc(Cl)c(O[C@H]2CCc3c(-c4cccc5c4CC[C@@H]5Oc4nc(OC)c(CNCC(=O)OCC)cc4Cl)cccc32)nc1OC` [Example 287, Diethyl 2,2′-((((((1S,1′S)-2,2′,3,3′-tetrahydro-1H,1′H-[4,4′-biindene]-1,1′-diyl)bis(oxy))bis(5-chloro-2-methoxypyridine-6,3-diyl))bis(methylene))bis(azanediyl))diacetate], on PD-1/PD-L1 interaction, the EC50 was 958 nM. In addition, the half-maximal inhibitory concentration (IC50) at PD-1/PD-L1 was 457 nM.
The matching figures for `Cc1c(COc2cc(OCc3cncc(C#N)c3)c(CNC(CO)CO)cc2Cl)cccc1-c1cccc(COc2cc(OCc3cncc(C#N)c3)c(CNC(CO)CO)cc2Cl)c1C` [Example 281, 5,5′-((((((2,2′-dimethyl-[1,1′-biphenyl]-3,3′-diyl)bis(methylene))bis(oxy))bis(4-chloro-6-(((1,3-dihydroxypropan-2-yl)amino)methyl)-3,1-phenylene))bis(oxy))bis(methylene))dinicotinonitrile]: 488 nM and 8.7 nM.
For `Cc1c(COc2cc(O)c(CNC[C@@H](F)C(C)(C)O)cc2Cl)cccc1-c1cccc(COc2cc(OCc3cncc(C#N)c3)c(CNC[C@@H](F)C(C)(C)O)cc2Cl)c1C` [Example 277, 5-((4-chloro-5-((3′-((2-chloro-4-((((R)-2-fluoro-3-hydroxy-3-methylbutyl)amino)methyl)-5-hydroxyphenoxy)methyl)-2,2′-dimethyl-[1,1′-biphenyl]-3-yl)methoxy)-2-((((R)-2-fluoro-3-hydroxy-3-methylbutyl)amino)methyl)phenoxy)methyl)nicotinonitrile], the EC50 at PD-1/PD-L1 interaction was at least 50000 nM. For the same compound, the concentration for half-maximal inhibition (IC50) at PD-1/PD-L1 came out at 125 nM.
The matching figures for `COc1nc(O[C@@H]2c3cccc(-c4cccc5c4C[C@@H](F)[C@@H]5Oc4nc(OC)c(CNC[C@@H](O)CC(=O)O)cc4Cl)c3C[C@H]2F)c(Cl)cc1CNC[C@@H](O)CC(=O)O` [Example 639, (3S,3′S)-4,4′-((((((1R,1′R,2R,2′R)-2,2′-difluoro-2,2′,3,3′-tetrahydro-1H,1′H-[4,4′-biindene]-1,1′-diyl)bis(oxy))bis(5-chloro-2-methoxypyridine-6,3-diyl))bis(methylene))bis(azanediyl))bis(3-hydroxybutanoic acid)]: 942 nM and 1.85 nM.
The matching figures for `Cc1c(COc2cc(OCc3cncc(C#N)c3)c(CNCCO)cc2Cl)cccc1-c1cccc(COc2cc(OCC3CC3)c(CNCCO)cc2Cl)c1C` [Example 199, 5-((4-Chloro-5-((3′-((2-chloro-5-(cyclopropylmethoxy)-4-(((2-hydroxyethyl)amino)methyl)phenoxy)methyl)-2,2′-dimethyl-[1,1′-biphenyl]-3-yl)methoxy)-2-(((2-hydroxyethyl)amino)methyl)phenoxy)methyl)nicotinonitrile]: 2150 nM and 188 nM.
The matching figures for `CC(=O)NCCNCc1cc(Cl)c(OCc2cccc(-c3cccc(COc4cc(OCc5cncc(C#N)c5)c(CNCCNC(C)=O)cc4Cl)c3C)c2C)cc1OCc1cncc(C#N)c1` [Example 70, N,N′-(((((((2,2′-dimethyl-[1,1′-biphenyl]-3,3′-diyl)bis(methylene))bis(oxy))bis(5-chloro-2-((5-cyanopyridin-3-yl)methoxy)-4,1-phenylene))bis(methylene))bis(azanediyl))bis(ethane-2,1-diyl))diacetamide]: 902 nM and 10.6 nM.
Consider `CCOc1nc(OCc2cccc(-c3cccc(COc4ccc(CNCCO)c(OCC)n4)c3C)c2C)ccc1CNCCO` [Example 271, 2,2′-((((((2,2′-dimethyl-[1,1′-biphenyl]-3,3′-diyl)bis(methylene))bis(oxy))bis(2-ethoxypyridine-6,3-diyl))bis(methylene))bis(azanediyl))bis(ethan-1-ol)], for which, on PD-1/PD-L1 interaction, the EC50 was at least 50000 nM. At PD-1/PD-L1, the IC50 worked out at 56 nM.
Turning to `Cc1c(-c2ccc(OCCNC[C@@H](O)CC(=O)O)cc2)cccc1-c1cccc2c1CC[C@@H]2Oc1nc(OCc2cc(C#N)cc(C#N)c2)c(CNC[C@@H](O)CC(=O)O)cc1Br` [Example 753], at PD-1/PD-L1 interaction, the 50% effective concentration (EC50) was found to be 35 nM. The half-inhibitory concentration (IC50) on PD-1/PD-L1 is 0.064 nM.
`Cc1c(COc2cc(OCCN3CCOCC3)c(CNCCO)cc2Cl)cccc1-c1cccc(COc2cc(OCCN3CCOCC3)c(CNCCO)cc2Cl)c1C` [Example 28, 2,2′-((((((2,2′-dimethyl-[1,1′-biphenyl]-3,3′-diyl)bis(methylene))bis(oxy))bis(5-chloro-2-(2-morpholinoethoxy)-4,1-phenylene))bis(methylene))bis(azanediyl))bis(ethan-1-ol)]: on PD-1/PD-L1 interaction, the EC50 was 663 nM. The IC50 on PD-1/PD-L1 is 12.7 nM.

The values are drawn from patent US12590062B2, “PD-1/PD-L1 inhibitors” (Gilead Sciences, Inc., priority 2017, dated 2026).
